How the values were obtained:
Assay type in all cases: in vivo
[1] = system: Ctenocephalides felis; test: Ctenocephalides felis in-vitro contact test adult cat flea; details: 5 μg/cm^2 (=500 g/ha), after 48 hours; for pest or weed control at 5 µg/cm2, 5 µg/cm2: Ctenocephalides felis, read-out: efficacy (fleas dead or moribund)
In short: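 Efficacy (% dead or moribund) was scored 48 h after adult Ctenocephalides felis were confined in tubes coated with the acetone-applied compound (900 ppm, 5 μg/cm^2). Moribund status was judged by failure to escape a 45-50° C heating plate within 5 minutes.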

[2] = system: Rhipicephalus sanguineus; test: Rhipicephalus sanguineus in-vitro contact test with adult brown dog ticks; details: 5 μg/cm^2 (=500 g/ha), after 48 hours; for pest or weed control at 5 µg/cm2, 5 µg/cm2: Rhipicephalus sanguineus, read-out: efficacy (ticks dead or moribund)
Method: Rhipicephalus sanguineus—In-Vitro Contact Test with Adult Brown Dog Ticks
9 mg compound is solved in 1 ml acetone and diluted with acetone to the desired concentration. 250 μl of the test solution is filled in 25 ml glass test tubes and homogeneously distributed on the inner walls by rotation and tilting on a shaking device (2 h at 30 rpm). With a compound concentration of 900 ppm, an inner surface of 44.7 cm^2 and a homogeneous distribution, a dose of 5 μg/cm^2 is achieved.
After the solvent has evaporated, each test tube is filled with 5-10 adult brown dog ticks (Rhipicephalus sanguineus), closed with a perforated lid and incubated in a lying position at room temperature and relative humidity. After 48 hours efficacy is determined. The ticks are patted on the ground of the tubes and are incubated on a heating plate at 45-50° C. for at most 5 minutes. Immotile or uncoordinated moving ticks, which are not able to escape the heat by climbing upwards, are marked as dead or moribund.
An efficacy of 100% means all ticks are dead or moribund; 0% means no ticks are dead or moribund.

[3] = system: Boophilus microplus; test: Boophilus microplus injection test; details: 20 μg/animal, egg deposition after 7 days; for pest or weed control at 0.02 mg: Rhipicephalus microplus, 168 h, read-out: efficacy (infertile eggs)
In short: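 Efficacy expresses the share of infertile eggs (100% all infertile, 0% all fertile), judged at 7 days or at hatching around day 42. Five adult engorged females were each injected abdominally with 1 μl of DMSO compound solution and incubated in a climate chamber.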

[4] = system: Ctenocephalides felis; test: Ctenocephalides felis oral test; details: Ctenocephalides felis, in Bos taurus, po, 48 h
In short: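 About 20 adult unfed fleas fed through parafilm on cattle blood containing compound (DMSO concentrate diluted in blood); blood held at 37° C., fleas at room temperature. Mortality in % scored after 2 days (100% = all killed).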

[5] = system: Myzus persicae; test: Myzus persicae oral test; details: 120 h
In short: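 Feeding test: compound diluted in water was combined with IPL41 insect medium (33%+15% sugar) under a parafilm seal. A mixed population of green peach aphids fed through the membrane. Mortality (%) was scored after 5 days.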

[6] = system: Nezara viridula; test: Nezara viridula spray test; details: in Hordeum vulgare, 96 h
In short: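 Barley plants infested with stink bug larvae were sprayed with compound diluted in water containing 1000 ppm emulsifier. Mortality (%) was scored after 4 days, 100% meaning all bugs killed.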

[7] = system: Nilaparvata lugens; test: Nilaparvata lugens spray test; details: for mortality at 500 g/ha: Nilaparvata lugens, in Oryza sativa, 96 h
In short: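 Rice plants sprayed with compound diluted in water containing 1000 ppm emulsifier, then infested with brown planthopper. Mortality (%) scored after 4 days, 100% meaning all insects killed.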

[8] = system: Phaedon cochleariae; test: Phaedon cochleariae spray test; details: foliar, 168 h, Chinese cabbage leaf disks, after 7 days
Method: Phaedon cochleariae—Spray Test
(§1) To produce a suitable preparation of active compound, 1 part by weight of active compound is mixed with the stated amount of solvents and is diluted with water, containing an emulsifier concentration of 1000 ppm, to the desired concentration. Further test concentrations are prepared by dilution with emulsifier containing water.
Chinese cabbage (Brassica pekinensis) leaf disks are sprayed with a preparation of the active ingredient of the desired concentration. Once dry, the leaf disks are infested with mustard beetle larvae (Phaedon cochleariae).
After 7 days mortality in % is determined. 100% means all beetle larvae have been killed and 0% means none of the beetle larvae have been killed.

[9] = system: Aedes aegypti strain MONHEIM; test: Aedes aegypti test (AEDSAE surface treatment & contact assay); details: 24 hours after contact, read-out: efficacy (mortality); for mortality at 4 mg/m2: surface concentration 4 mg/m^2, 30 minutes exposure; for mortality at 20 mg/m2: surface concentration 20 mg/m^2, 30 minutes exposure
In short: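 Compound dissolved in acetone (2 mg/ml) with 2000 ppm rapeseed oil methyl ester and dried onto a glazed tile. Adult mosquitoes held on the treated surface for 30 minutes exposure. Percent mortality scored 24 hours after contact.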

[10] = system: Culex quinquefasciatus strain P00; test: Culex quinquefasciatus test (CULXFA surface treatment & contact assay); details: 24 hours after contact, read-out: efficacy (mortality); for mortality at 20 mg/m2: surface concentration 20 mg/m^2, 30 minutes exposure; for mortality at 4 mg/m2: surface concentration 4 mg/m^2, 30 minutes exposure
In short: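 Compound dissolved in acetone (2 mg/ml) with 2000 ppm rapeseed oil methyl ester, applied to glazed tile and dried. Adult strain P00 mosquitoes exposed to the surface for 30 minutes. Percent mortality scored 24 hours after contact.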

[11] = system: Anopheles funestus strain FUMOZ-R; test: Anopheles funestus test (ANPHFU surface treatment & contact assay); details: 24 hours after contact, read-out: efficacy (mortality); for mortality at 4 mg/m2: surface concentration 4 mg/m^2, 30 minutes exposure; for mortality at 20 mg/m2: surface concentration 20 mg/m^2, 30 minutes exposure
In short: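 Compound dissolved in acetone (2 mg/ml) with 2000 ppm rapeseed oil methyl ester, dried onto glazed tile; adult Anopheles funestus FUMOZ-R exposed for 30 minutes. Percent mortality scored 24 hours after contact.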

[12] = system: Diabrotica balteata; test: Diabrotica balteata spray test; details: 160 μg/well, wheat seeds, after 7 days; for pest or weed control at 160 µg/disc, 160 µg/well: Diabrotica balteata, 168 h, read-out: efficacy (seedlings grown)
In short: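 Efficacy (%) read 7 days after infesting treated seedlings with 10-20 banded cucumber beetle larvae, 100% meaning growth as in uninfected untreated control and 0% no growth. Test solutions in water containing 1000 ppm emulsifier were sprayed onto wheat seeds germinated for 1 day on agar.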

[13] = system: Spodoptera frugiperda; test: Spodoptera frugiperda spray test; details: in Zea mays, 168 h
In short: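 Read-out: % larval mortality at day 7, where 100% means all killed and 0% none killed. Compound diluted in water with 1000 ppm emulsifier, sprayed onto Zea mays leaf sections; dried sections then infested with S. frugiperda larvae.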

[14] = system: Musca domestica strain WHO-N; test: Musca domestica test (MUSCDO surface treatment & contact assay); details: 24 hours after contact, read-out: efficacy (mortality); for mortality at 20 mg/m2: surface concentration 20 mg/m^2, 30 minutes exposure
Method: Musca domestica Test (MUSCDO Surface Treatment & Contact Assay)
Solvent: Aceton+2000 ppm rapeseed oil methyl ester (RME)
In order to produce a sufficient, active ingredient containing solution it is necessary to solve the test-compound in the solvent-mix (Acetone at 2 mg/ml/RME 2000 ppm). This solution is pipetted onto a glazed tile and after evaporation of the Acetone, adult flies of the species Musca domestica strain WHO-N are placed onto the dried surface. The exposure time is 30 minutes.
Mortality in percent (%) is determined 24 hours after contact to the treated surface. 100% mortality means that all test-insects are dead, whereas 0% means that not a single insect died.

[15] = system: Myzus persicae; test: Myzus persicae spray test; details: in Brassica rapa, foliar, 120 h
Method: Myzus persicae—Spray Test
as §1
Chinese cabbage (Brassica pekinensis) leaf disks infected with all instars of the green peach aphid (Myzus persicae), are sprayed with a preparation of the active ingredient of the desired concentration.
After 5 days mortality in % is determined. 100% means all aphids have been killed and 0% means none of the aphids have been killed.

Row | SMILES | pest or weed control at 5 µg/cm2, 5 µg/cm2 [1] [%] | pest or weed control at 5 µg/cm2, 5 µg/cm2 [2] [%] | pest or weed control at 0.02 mg [3] [%] | mortality at 100 ppm [4] [%] | mortality at 20 ppm [5] [%] | mortality at 500 g/ha [6] [%] | mortality at 500 g/ha [7] [%] | mortality at 500 g/ha [8] [%] | mortality at 4 mg/m2 [9] [%] | mortality at 20 mg/m2 [9] [%] | mortality at 20 mg/m2 [10] [%] | pest or weed control at 160 µg/disc, 160 µg/well [12] [%] | mortality at 500 g/ha [13] [%] | mortality at 20 mg/m2 [14] [%] | also measured
1 | CC(c1ncnn1-c1ncccn1)N(CC1CC1)C(=O)c1cccc(S(C)(=O)=O)c1 (stereo not shown) [Example I-001] | 80 | 100 | 100 | 100 | 100 | 100 | 100 | 100 | 80 to 100 | 90 to 100 | 80 to 100 |  |  |  | mortality at 4 mg/m2 [11]: 85 to 100%; mortality at 20 mg/m2 [11]: 85 to 100%
2 | CC(c1ncnn1-c1ncccn1)N(CC1CC1)C(=O)c1cncc(S(C)(=O)=O)c1 (stereo not shown) [Example I-002] | 100 | 80 | 100 | 100 |  | 100 |  |  |  |  |  |  |  |  | 
3 | CC(c1ncnn1-c1ncccn1)N(CC1CC1)C(=O)c1cc(Cl)cc(S(C)(=O)=O)c1 (stereo not shown) [Example I-003, 3-chloro-N-(cyclopropylmethyl)-5-(methylsulfonyl)-N-{1-[1-(pyrimidin-2-yl)-1H-1,2,4-triazol-5-yl]ethyl}benzamide] | 100 | 100 | 100 | 100 | 100 | 100 | 100 | 100 |  |  |  | 100 |  |  | mortality at 4 ppm [5]: 90%
4 | CC(c1ncnn1-c1ncccn1)N(CC1CC1)C(=O)c1cc(C(F)(F)F)cc(Cl)c1F (stereo not shown) [Example I-004] |  | 80 |  | 100 | 100 | 100 | 100 | 100 |  |  |  | 100 | 83 |  | 
5 | CC(c1ncnn1-c1ncccn1)N(CC1CC1)C(=O)c1cc(Cl)cc(S(=O)(=O)C(F)(F)F)c1 (stereo not shown) [Example I-019] | 100 |  | 100 | 100 | 100 | 100 | 100 | 100 | 80 to 100 | 90 to 100 | 80 to 100 | 100 | 100 | 80 to 100 | mortality at 4 ppm [5]: 100%; mortality at 4 mg/m2 [10]: 80 to 100%
6 | CC(c1ncnn1-c1ncccn1)N(CC1CC1)C(=O)c1csc(Cl)c1 (stereo not shown) [Example I-021] | 100 | 80 | 80 | 100 |  |  |  |  |  |  |  |  |  |  | 
7 | CC(c1ncnn1-c1ncccn1)N(CC1CC1)C(=O)c1cc(C(F)(F)F)n(C)n1 (stereo not shown) [Example I-025] | 100 |  | 100 | 100 | 100 | 100 | 100 | 83 |  | 90 to 100 | 80 to 100 | 100 |  | 80 to 100 | mortality at 4 mg/m2 [11]: 85 to 100%; mortality at 20 mg/m2 [11]: 85 to 100%
8 | CC(NC(=O)c1cc(Cl)cc(S(C)(=O)=O)c1)c1ncnn1-c1ncccn1 (stereo not shown) [Example I-037] |  |  |  |  |  |  |  |  |  |  |  |  |  |  | efficacy (fleas dead or moribund) [1]: 100%; efficacy (ticks dead or moribund) [2]: 80%; efficacy (infertile eggs) [3]: 100%; efficacy (seedlings grown) [12]: 100%
9 | CC(NC(=O)c1cc(F)cc(C2CC2)c1)c1ncnn1-c1ncccn1 (stereo not shown) [Example I-045] |  |  |  |  |  |  |  |  |  |  |  |  |  |  | efficacy (fleas dead or moribund) [1]: 100%; efficacy (ticks dead or moribund) [2]: 100%; efficacy (infertile eggs) [3]: 100%; efficacy (seedlings grown) [12]: 100%; mortality ([7]; 500 g/ha, rice plants, after 4 days): 90%
10 | C[C@@H](NC(=O)c1cc(OC(F)(F)F)cc(C2CC2)c1)c1ncnn1-c1ccc(C#N)cn1 [Example I-053] |  | 100 |  | 100 |  |  |  |  | 80 to 100 | 90 to 100 |  | 100 | 100 | 80 to 100 | mortality at 4 mg/m2 ([14]; surface concentration 4 mg/m^2, 30 minutes exposure): 80 to 100%
11 | CSc1cc(Cl)cc(C(=O)N[C@H](C)c2ncnn2-c2ccc(C#N)cn2)c1 [Example I-066] | 100 | 80 |  | 100 |  | 100 |  |  | 80 to 100 | 90 to 100 | 80 to 100 | 100 | 100 | 80 to 100 | mortality at 4 ppm [5]: 90%; mortality at 500 g/ha [15]: 90%; mortality at 4 mg/m2 [10]: 80 to 100%; mortality at 4 mg/m2 [11]: 85 to 100%; mortality at 20 mg/m2 [11]: 85 to 100%

Reference: patent US12187705B2, “Heteroaryl-triazole and heteroaryl-tetrazole compounds as pesticides” (Bayer Aktiengesellschaft, priority 2018, dated 2025)
